Where two headings read alike, the source gives them in different places.
Columns and labels:
[1] = Pharmacological (behavioral) signs after percutaneous diazepam in animal models, e.g. rhesus monkey; assay type: in vivo; conditions: percutaneous administration, blood level of approximately 100 ng/ml
[2] = remark: listed apart in the source
Text: Rat full thickness skins were used in the following two types of diffusion cell methods.
The skin was excised from the shaved abdominal site of deceased male albino rats weighing 250~300 g, and washed with normal saline solution after the subcutaneous fat was carefully removed with scissors.
Probl. Dermatol., Vol. 7, p. […] The rat skin was mounted horizontally in a diffusion cell apparatus; the exposed area of the skin approximated 0.7 cm^2.
The active agent/PEAC solution of known concentration was added to the upper compartment of the cell, which was exposed to the epithelial side of the skin and a normal saline solution was placed in the lower compartment.
The penetration rate was studied in a thermostated bath at 30° C.
(§1) In all instances the in vitro diffusion cell technique or the in vivo rhesus monkey test earlier described were used. In all instances analysis was by conventional HPLC (high pressure liquid chromatography). Details and citations are given for illustrative techniques.
Detection was in a conventional manner via HPLC using a mobile phase of 70% A (0.5 acetic acid (v/v) with 1.0 g/l sodium pentane sulfonate) and 30% B (90% acetonitrile and 10% H2 O (v/v) with 1.0 g/l sodium pentane sulfonate); the columnn was ASI C18 300×3.9 mm and the flow rate was 2 ml/min by UV at 267 nm.

[3] = in vivo; conditions: rhesus monkey, topical or ocular, In Vivo - Monkey Plasma, 200 mg on 49 cm^2, 25% ethyl laurate in N-methyl pyrrolidone
Method: Male rhesus monkeys weighing 10-14 Kg each were used as the subject. An appropriate area of the monkey's chest was shaved 24 hours before drug application.
Drug formulations comprising the PEAC were applied to a certain area of the chest as indicated in each example. The monkey was restrained in a chair to prevent it from touching its chest.
Blood samples were taken at appropriate intervals after the application. The heparinized blood was centrifuged, and the plasma was removed and stored at -20° C. until analyzed. […]
To this solution was added 120 mg of Klucel® (cross-linked hydroxypropylcellulose type HF, Hercules Inc.) and the same stirred thoroughly to obtain a uniform gel.
1.0 ml of the gel was applied to 49 cm^2 of the chest area of the monkey; the applied area was left open to the air for the duration of the experiment.
as §1
To this solution was added 120 mg of hydroxypropylcellulose (Klucel® HF). […]

[4] = Comparative Composition B: active agent 3 g in 97 g dimethyl propionamide
[5] = Comparative Composition C: active agent 3 g in 97 g acetone, acetone evaporated off
[6] = Composition A: active agent 3 g in 97 g of 25 volume % isopropyl myristate in dimethyl propionamide
[7] = 2 hrs, I: 25 mg drug + 25% isopropyl myristate in N-methyl pyrrolidone
[8] = 2 hrs, II: 25 mg drug + 25% isopropyl myristate in N-methyl piperidone
[9] = 2 hrs, III: 25 mg drug + 25% isopropyl myristate in N-methyl caprolactam
[10] = 2 hrs, IV: 25 mg drug + 25% ethyl laurate in N-methyl pyrrolidone
[11] = 4 hrs, I: 25 mg drug + 25% isopropyl myristate in N-methyl pyrrolidone
[12] = 4 hrs, II: 25 mg drug + 25% isopropyl myristate in N-methyl piperidone
[13] = 4 hrs, III: 25 mg drug + 25% isopropyl myristate in N-methyl caprolactam
[14] = 4 hrs, IV: 25 mg drug + 25% ethyl laurate in N-methyl pyrrolidone
[15] = 6 hrs, I: 25 mg drug + 25% isopropyl myristate in N-methyl pyrrolidone
[16] = 6 hrs, II: 25 mg drug + 25% isopropyl myristate in N-methyl piperidone
[17] = 6 hrs, III: 25 mg drug + 25% isopropyl myristate in N-methyl caprolactam
[18] = 6 hrs, IV: 25 mg drug + 25% ethyl laurate in N-methyl pyrrolidone
[19] = 8 hrs, I: 25 mg drug + 25% isopropyl myristate in N-methyl pyrrolidone
[20] = 8 hrs, II: 25 mg drug + 25% isopropyl myristate in N-methyl piperidone
[21] = 8 hrs, III: 25 mg drug + 25% isopropyl myristate in N-methyl caprolactam
[22] = 8 hrs, IV: 25 mg drug + 25% ethyl laurate in N-methyl pyrrolidone

Compound	flux [4] [μg/cm^2 /24 hrs]	flux [5] [μg/cm^2 /24 hrs]	flux [6] [μg/cm^2 /24 hrs]	flux [2, 7] [μg/cm^2 /hr]	flux [2, 8] [μg/cm^2 /hr]	flux [2, 9] [μg/cm^2 /hr]	flux [2, 10] [μg/cm^2 /hr]	flux [2, 11] [μg/cm^2 /hr]	flux [2, 12] [μg/cm^2 /hr]	flux [2, 13] [μg/cm^2 /hr]	flux [2, 14] [μg/cm^2 /hr]	flux [2, 15] [μg/cm^2 /hr]	flux [2, 16] [μg/cm^2 /hr]	flux [2, 17] [μg/cm^2 /hr]	flux [2, 18] [μg/cm^2 /hr]	flux [2, 19] [μg/cm^2 /hr]	flux [2, 20] [μg/cm^2 /hr]	flux [2, 21] [μg/cm^2 /hr]	flux [2, 22] [μg/cm^2 /hr]	further results
CN1C(=O)CN=C(c2ccccc2)c2cc(Cl)ccc21 [Diazepam, 7-Chloro-1,3-dihydro-1-methyl-5-phenyl-2H-1,4-benzodiazepine-2-one]	–	–	–	–	–	–	–	–	–	–	–	–	–	–	–	–	–	–	–	pharmacological (behavioral) signs [1]: produces pharmacological (behavioral) signs of therapeutic effectiveness
CC(C)Cc1ccc(C(C)C(=O)O)cc1 (stereo not drawn) [Ibuprofen, p-isobutylhydratropic acid]	835	242	1085	154.0	142.0	33.3	192.8	95.6	79.2	90.7	93.0	53.9	46.1	76.4	47.5	49.6	40.4	63.2	40.0	–
COc1ccc2c(c1)c(CC(=O)O)c(C)n2C(=O)c1ccc(Cl)cc1 [Indomethacin, 1-(p-chlorobenzoyl)-5-methoxy-2-methylindole-3-acetic acid]	150	30	394	65.1	55.7	11.3	89.5	39.0	49.3	56.8	63.7	21.5	29.3	41.3	23.0	13.2	15.1	21.8	13.9	concentration at 1 h ([3]; 1 hour): 370 ng/mL; concentration at 2 h ([3]; 2 hours): 505 ng/mL; concentration at 3 h ([3]; 3 hours): 420 ng/mL; concentration at 5 h ([3]; 5 hours as printed): 110 ng/mL; concentration at 5 h ([3]; 5 hours): 225 ng/mL
COC(=O)C1=C(C)NC(C)=C(C(=O)OC)C1c1ccccc1[N+](=O)[O-] [Nifedipine]	–	–	–	–	–	–	–	–	–	–	–	–	–	–	–	–	–	–	–	flux ([2]; 2 hrs, V (control): 25 mg drug in 1 ml N-methyl pyrrolidone): < 2 μg/cm^2 /hr; flux ([2]; 4 hrs, V (control): 25 mg drug in 1 ml N-methyl pyrrolidone): 2.7 μg/cm^2 /hr; flux ([2]; 6 hrs, V (control): 25 mg drug in 1 ml N-methyl pyrrolidone): 8.1 μg/cm^2 /hr; flux ([2]; 8 hrs, V (control): 25 mg drug in 1 ml N-methyl pyrrolidone): 3.9 μg/cm^2 /hr
O=C(O)c1ccccc1Nc1cccc(C(F)(F)F)c1 [flufenamic acid, N-(3'-trifluoro-methylphenyl)-anthranilic acid]	311	26	598	–	–	–	–	–	–	–	–	–	–	–	–	–	–	–	–	–

From patent US4710497A, “Method for percutaneously administering physiologically active agents” (Nitto Electric Industrial Co., Ltd., priority 1985, dated 1987)
